Measurements: the supplement of paper PMC10307832

Columns and labels:
Assay in all cases: relative viability (nuclei count vs DMSO), 5 days (fraction); higher = more cells survive
[1] = test system: NCI-H1793
Summary of the method: (§1)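 Relative viability was taken as the ratio of nuclei in treated wells to nuclei in vehicle wells. Lung cancer cell lines in 1536-well plates received compounds by pin tool one day after seeding, either one drug alone or a fixed anchor-drug dose plus five library-drug doses (not always all listed) in √10 steps. Nuclei were counted on 4× images after 5 days of treatment, and values are medians of duplicate plates.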

[2] = test system: NCI-H441
Summary of the method: as §1

[3] = test system: NCI-H1651
Summary of the method: as §1

[4] = test system: LOU-NH91
Summary of the method: as §1

[5] = test system: NCI-H522
Summary of the method: as §1

[6] = test system: LXF-289
Summary of the method: as §1

[7] = test system: NCI-H2347
Summary of the method: as §1

[8] = test system: HCC-15
Summary of the method: as §1

[9] = test system: NCI-H2085
Summary of the method: as §1

[10] = test system: H3255
Summary of the method: as §1

[11] = test system: NCI-H1915
Summary of the method: as §1

[12] = test system: LC-2-ad
Summary of the method: as §1

[13] = test system: NCI-H838
Summary of the method: as §1

[14] = test system: SK-MES-1
Summary of the method: as §1

[15] = test system: HARA
Summary of the method: as §1

[16] = test system: NCI-H661
Summary of the method: as §1

[17] = test system: BEN
Summary of the method: as §1

[18] = test system: NCI-H647
Summary of the method: as §1

[19] = test system: CAL-12T
Summary of the method: as §1

[20] = test system: NCI-H322M
Summary of the method: as §1

[21] = test system: NCI-H2170
Summary of the method: as §1

[22] = test system: UMC-11
Summary of the method: as §1

[23] = test system: NCI-H650
Summary of the method: as §1

[24] = test system: NCI-H1395
Summary of the method: as §1

Compound `Nc1cccc2c1CN(C1CCC(=O)NC1=O)C2=O` (configuration not stated) [Lenalidomide] + CCNC(=O)c1noc(-c2cc(C(C)C)c(O)cc2O)c1-c1ccc(CN2CCOCC2)cc1 [Luminespib] (partner 0.01 µM) has a relative viability ([1]; first compound 0.253 µM) of 0.173, a relative viability ([1]; first compound 2.53 µM) of 0.167 and a relative viability ([1]; first compound 8 µM) of 0.165. For the same compound, the relative viability ([2]; first compound 0.253 µM) was 0.293, the relative viability ([2]; first compound 0.8 µM) was 0.388 and the relative viability ([2]; first compound 2.53 µM) was 0.307. It also gave a relative viability ([2]; first compound 8 µM) of 0.285, a relative viability ([3]; first compound 0.253 µM) of 0.713 and a relative viability ([3]; first compound 0.8 µM) of 0.895. The relative viability ([3]; first compound 2.53 µM) was 0.987, the relative viability ([3]; first compound 8 µM) was 1.03 and the relative viability ([4]; first compound 0.253 µM) was 0.343. It also gave a relative viability ([4]; first compound 0.8 µM) of 0.343, a relative viability ([4]; first compound 2.53 µM) of 0.313 and a relative viability ([4]; first compound 8 µM) of 0.283. It also gave a relative viability ([5]; first compound 0.253 µM) of 1.32, a relative viability ([5]; first compound 0.8 µM) of 1.79 and a relative viability ([5]; first compound 2.53 µM) of 1.28. It also gave a relative viability ([5]; first compound 8 µM) of 1.17, a relative viability ([6]; first compound 0.253 µM) of 0.799 and a relative viability ([6]; first compound 0.8 µM) of 0.686. The relative viability ([6]; first compound 2.53 µM) was 0.768, the relative viability ([6]; first compound 8 µM) was 0.725 and the relative viability ([7]; first compound 0.253 µM) was 0.507. It also gave a relative viability ([7]; first compound 0.8 µM) of 0.627, a relative viability ([7]; first compound 2.53 µM) of 0.454 and a relative viability ([7]; first compound 8 µM) of 0.249. It also gave a relative viability ([8]; first compound 0.253 µM) of 0.485, a relative viability ([8]; first compound 0.8 µM) of 0.303 and a relative viability ([8]; first compound 2.53 µM) of 0.359. It also gave a relative viability ([8]; first compound 8 µM) of 0.363, a relative viability ([9]; first compound 0.253 µM) of 0.487 and a relative viability ([9]; first compound 0.8 µM) of 0.487. The relative viability ([9]; first compound 2.53 µM) was 0.367, the relative viability ([9]; first compound 8 µM) was 0.437 and the relative viability ([10]; first compound 0.253 µM) was 0.732. It also gave a relative viability ([10]; first compound 0.8 µM) of 0.753, a relative viability ([10]; first compound 2.53 µM) of 0.915 and a relative viability ([10]; first compound 8 µM) of 0.876. The relative viability ([11]; first compound 0.253 µM) was 0.818, the relative viability ([11]; first compound 0.8 µM) was 0.845 and the relative viability ([11]; first compound 2.53 µM) was 0.802. For the same compound, the relative viability ([11]; first compound 8 µM) was 0.915, the relative viability ([12]; first compound 0.253 µM) was 0.912 and the relative viability ([12]; first compound 2.53 µM) was 1.03. The relative viability ([12]; first compound 8 µM) was 1.18, the relative viability ([13]; first compound 0.253 µM) was 0.338 and the relative viability ([13]; first compound 0.8 µM) was 0.308. The relative viability ([13]; first compound 2.53 µM) was 0.269, the relative viability ([13]; first compound 8 µM) was 0.4 and the relative viability ([14]; first compound 0.253 µM) was 0.777. For the same compound, the relative viability ([14]; first compound 0.8 µM) was 0.891, the relative viability ([14]; first compound 2.53 µM) was 0.886 and the relative viability ([14]; first compound 8 µM) was 0.863. It also gave a relative viability ([15]; first compound 0.253 µM) of 0.679, a relative viability ([15]; first compound 2.53 µM) of 0.614 and a relative viability ([15]; first compound 8 µM) of 1.03. For the same compound, the relative viability ([16]; first compound 0.253 µM) was 0.835, the relative viability ([16]; first compound 0.8 µM) was 0.864 and the relative viability ([16]; first compound 2.53 µM) was 0.847. It also gave a relative viability ([16]; first compound 8 µM) of 0.9, a relative viability ([17]; first compound 0.253 µM) of 0.427 and a relative viability ([17]; first compound 0.8 µM) of 0.233. The relative viability ([17]; first compound 2.53 µM) was 0.607, the relative viability ([17]; first compound 8 µM) was 0.246 and the relative viability ([18]; first compound 0.253 µM) was 0.133. The relative viability ([18]; first compound 0.8 µM) was 0.284, the relative viability ([18]; first compound 2.53 µM) was 0.203 and the relative viability ([18]; first compound 8 µM) was 0.26. The relative viability ([19]; first compound 0.253 µM) was 0.341, the relative viability ([19]; first compound 0.8 µM) was 0.245 and the relative viability ([19]; first compound 2.53 µM) was 0.259. The relative viability ([19]; first compound 8 µM) was 0.479, the relative viability ([20]; first compound 0.253 µM) was 0.81 and the relative viability ([20]; first compound 0.8 µM) was 0.982. The relative viability ([20]; first compound 2.53 µM) was 1.05, the relative viability ([20]; first compound 8 µM) was 1.01 and the relative viability ([21]; first compound 0.253 µM) was 0.683. For the same compound, the relative viability ([21]; first compound 0.8 µM) was 0.799, the relative viability ([21]; first compound 2.53 µM) was 0.588 and the relative viability ([21]; first compound 8 µM) was 0.426. For the same compound, the relative viability ([22]; first compound 0.253 µM) was 1.02, the relative viability ([22]; first compound 0.8 µM) was 1.03 and the relative viability ([22]; first compound 2.53 µM) was 1.04. For the same compound, the relative viability ([22]; first compound 8 µM) was 0.953, the relative viability ([23]; first compound 0.253 µM) was 0.905 and the relative viability ([23]; first compound 2.53 µM) was 0.831. The relative viability ([23]; first compound 8 µM) was 0.823, the relative viability ([24]; first compound 0.253 µM) was 0.796 and the relative viability ([24]; first compound 0.8 µM) was 0.72. The relative viability ([24]; first compound 2.53 µM) was 0.855 and the relative viability ([24]; first compound 8 µM) was 0.615.
